Consider 3 compounds from paper PMC4405350, “From Broad-Spectrum Biocides to Quorum Sensing Disruptors and Mussel Repellents: Antifouling Profile of Alkyl Triphenylphosphonium Salts” (PLoS ONE, 2015).

Structures are written as SMILES. pIC50: −log10 of the molar value.

Common to all, as to format: cell-based
Assay [1] deals with Navicula cf. salinicola BEA 0055. Briefly: Benthic diatom growth inhibition (chlorophyll-a). The settings on record: 120 h; growth, 5 days, chlorophyll-a; read-out: IC50 Navicula cf. salinicola. Summed up:
(§1)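 Diatoms at ca. 1–2×10^6 cells/mL in F/2 medium exposed 5 days at 19±1 °C, 18:6 photoperiod; chlorophyll-a extracted in DMSO (65 °C, 2 h) and read spectrophotometrically.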

The subject of assay [2] is Phaeodactylum tricornutum. Briefly: Benthic diatom growth inhibition (chlorophyll-a). The settings on record: Phaeodactylum tricornutum, 120 h; growth, 5 days, chlorophyll-a; read-out: IC50 P. tricornutum. Summed up:
as §1

Assay [3] has as its system Cylindrotheca sp. Briefly: Benthic diatom growth inhibition (chlorophyll-a). The settings on record: 120 h; growth, 5 days, chlorophyll-a; read-out: IC50 Cylindrotheca sp. Summed up:
as §1

Assay [4] concerns Amphora sp. Briefly: Benthic diatom growth inhibition (chlorophyll-a). The settings on record: 120 h; growth, 5 days, chlorophyll-a; read-out: IC50 Amphora sp. An outline of the steps:
as §1

For assay [5], the system named is Nitzschia sp. Briefly: Benthic diatom growth inhibition (chlorophyll-a). The settings on record: 120 h; growth, 5 days, chlorophyll-a; read-out: IC50 Nitzschia sp. An outline of the steps:
as §1

Assay [6] deals with Gayralia oxysperma spores. Briefly: Macroalgal spore germination inhibition. The note with it: 6 days, 19±1 °C. An outline of the steps:
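Gayralia oxysperma spores (ca. 2 x 10^5 spores ml^-1 inoculum) in Von Stosch Solution were incubated with phosphonium salts at 0.1–100 μM, 6 days at 19±1 °C, in triplicate. Germination (visible germ tube) scored microscopically; MIC as lowest fully inhibiting concentration, IC50 from four-parameter fit.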

Assay [7] concerns Aspergillus sp. Briefly: Marine-derived fungi growth inhibition (OD405). The note with it: Aspergillus, 120 h; growth inhibition, 5 days, 26 °C; read-out: IC50 Aspergillus sp. Summed up: (§2)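 Reef-derived fungal isolates grown on PDA with 50% v/v seawater at 26 °C; conidial inocula exposed to compounds for 5 days at 26 °C, triplicate.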
In assay [8] the test system is Alternaria sp. Briefly: Marine-derived fungi growth inhibition (OD405). The note with it: Alternaria, 120 h; growth inhibition, 5 days, 26 °C; read-out: IC50 Alternaria sp. An outline of the steps:
as §2

In assay [9] the test system is Shewanella algae CECT 5021. Briefly: Marine bacteria growth inhibition (broth microdilution, OD625). The settings on record: Shewanella algae, CECT5021; growth inhibition, 24 h, 30 °C, three replicates; read-out: IC50 S. algae. On the technique in general: Dilution methods test growth across graded concentrations, often in twofold steps.
In assay [10] the test system is Vibrio anguillarum CECT 4347. The assay is described as above. The note with it: Vibrio anguillarum, CECT4347; growth inhibition, 24 h, 30 °C, three replicates; read-out: IC50 V. anguillarum.
In assay [11] the test system is Pseudoalteromonas atlantica CECT 579. The description is as above. The note with it: Pseudoalteromonas atlantica, CECT579; growth inhibition, 24 h, 30 °C, three replicates; read-out: IC50 P. atlantica.
Assay [12] concerns Cobetia marina CECT 4278. The description is as above. The settings on record: Cobetia marina, CECT4278; growth inhibition, 24 h, 30 °C, three replicates; read-out: IC50 C. marina.
The subject of assay [13] is Cellulophaga lytica CECT 5014. Described as above. The settings on record: Cellulophaga lytica, CECT5014; growth inhibition, 24 h, 30 °C, three replicates; read-out: IC50 C. lytica.
For assay [14], the system named is Vibrio alginolyticus CECT 521. The assay is described as above. The settings on record: Vibrio alginolyticus, CECT521; growth inhibition, 24 h, 30 °C, three replicates; read-out: IC50 V. alginolyticus.

One may read the pIC50 as the negative decadic logarithm of the IC50, by convention in mol/L. `CCCCCCCCCCCCCCCCCC[P+](c1ccccc1)(c1ccccc1)c1ccccc1` [Compound 17]: the pIC50 in assay [1] was 5.92; in [2] it was 5.13; in [3], 5.10; in assay [4], 5.38; in assay [5], 5.12; in assay [7], 4.99. The pIC50 in [8] is 5.89; in [9], 4.14; in [10] it was 4.50; in [11], 4.34; in assay [12], less than 4.00; in [13], 4.95. Further, the pIC50 in assay [14] was less than 4.00. For the same compound, in assay [6], the “MIC G. oxysperma (lowest concentration inhibiting spore germination)” value was more than 100 µM.
Take `CCCCCCCCCCCCCCCCCCC[P+](c1ccccc1)(c1ccccc1)c1ccccc1` [Compound 18]: the pIC50 in [1] is 6.10; in assay [2], 4.77; in [3], 5.16; in assay [4], 5.47; in assay [5], 5.32; in [7] it was 4.71. Also, the pIC50 in assay [8] was 5.28; in assay [9], less than 4.00; in [10], less than 4.00; in assay [11] it was less than 4.00; in assay [12] it was less than 4.00; in assay [13], 5.28. Moreover, the pIC50 in assay [14] was less than 4.00. In addition, the “MIC G. oxysperma (lowest concentration inhibiting spore germination)” value in assay [6] is more than 100 µM.
Take `O=S(=O)([O-])CCCC[P+](c1ccccc1)(c1ccccc1)c1ccccc1` [Compound 6]: the pIC50 in [1] was less than 4.00; in assay [2] it was less than 4.00; in assay [3] it was 4.67; in [4], less than 4.00; in assay [5], less than 4.00; in assay [7], less than 4.00. In addition, the pIC50 in [8], in assay [9], in assay [10], in assay [11], in assay [12] and in [13] was less than 4.00 in each case. Further, in assay [14], the pIC50 is less than 4.00. In addition, the “MIC G. oxysperma (lowest concentration inhibiting spore germination)” value in assay [6] was more than 100 µM.
